Experimental data reported in patent publication US12102620B2, “Combination therapy for the treatment of mastocytosis” (Deciphera Pharmaceuticals, LLC, priority 2018, dated 2024).
“Also recorded” adds a separate entry of the source.

Experiments:
Assay type in all cases: cell-based
[1] = system: EV-transfected HMC1.2 mast cells; experiment: Colony outgrowth after drug removal, empty vector transfected cells; settings: all concentrations, 5 days after drug removal
Excerpt: (§1) Drug treatments were removed and colony outgrowth of viable cells was monitored after 5 or 13 additional days.
(§2) Drug treatments were removed and colony outgrowth of viable cells was monitored after 5 or 10 additional days.

[2] = system: N-ras G12D-transfected HMC1.2 cells; experiment: Colony outgrowth after drug removal, N-ras G12D transfected cells; settings: all concentrations, 5 days after drug removal
Excerpt: as §1, §2

[3] = system: HMC1.1 KIT V560G mast cell line; experiment: Cell proliferation, HMC1.1 KIT V560G mast cell line; settings: 72 h, read-out: IC50, inhibition of cell proliferation
Protocol: (§3) Assays were conducted in 96 well plates with 10,000 cells seeded per well.

[4] = system: HMC1.2 KIT V560G/D816V mast cell line; experiment: Cell proliferation, HMC1.2 KIT V560G/D816V mast cell line; settings: 72 h, read-out: IC50, inhibition of cell proliferation
Protocol: as §3

[5] = system: HMC1.2 mast cells (KIT D816V); experiment: Colony outgrowth in soft agar after drug removal; settings: all concentrations, 10 days treatment, 5 days after drug removal
Excerpt: Drug treatments were removed and colony outgrowth of viable cells was monitored after 5 additional days.

For `CCn1c(=O)c(-c2cc(NC(=O)Nc3ccccc3)c(F)cc2Br)cc2cnc(NC)cc21` [Compound A, 1-[4-bromo-5-[1-ethyl-7-(methylamino)-2-oxo-1,2-dihydro-1,6-naphthyridin-3-yl]-2-fluorophenyl]-3-phenylurea], the “colony outgrowth, single agent” value [1] was “colony outgrowth at all concentrations; also recorded: eradication was not observed” and the “colony outgrowth, single agent” value [2] was “colony outgrowth at all concentrations; also recorded: eradication was not observed”.

In the case of `CCn1c(=O)c(-c2cc(NC(=O)Nc3ccccc3)c(F)cc2Br)cc2cnc(N)cc21` [Compound B, 1-(5-(7-amino-l-ethyl-2-oxo-1,2-dihydro-1,6-naphthyridin-3-yl)-4-bromo-2-fluorophenyl)-3-phenylurea], the IC50 [3] is reported as 2.3 nM, the IC50 [4] is reported as 61 nM and the “colony outgrowth, single agent” value [5] is reported as “colony outgrowth at all concentrations; also recorded: eradication was not observed”.

For `O=C(c1ccc(F)c(F)c1Nc1ccc(I)cc1F)N1CC(O)([C@@H]2CCCCN2)C1` [cobimetinib, reference compound], the “colony outgrowth, single agent” value [5] was “colony outgrowth at all concentrations”, the “colony outgrowth, single agent” value [1] was “colony outgrowth at all concentrations; also recorded: eradication was not observed” and the “colony outgrowth, single agent” value [2] was “colony outgrowth at all concentrations; also recorded: eradication was not observed”.

For `Cn1cnc2c(F)c(Nc3ccc(Br)cc3F)c(C(=O)NOCCO)cc21` [binimetinib], the “colony outgrowth, single agent” value [5] was “colony outgrowth at all concentrations; also recorded: eradication was not observed”.
